Columns and labels:
high fat diet-mouse [1] = assay: Change in body weight by oral administration in high fat diet-mouse; type: in vivo; settings: for degree of body weight decrease as compared with HPBCD: method of Example 3 (oral)
Procedure: Male C57BL/6J mice (Five age of the week, KRIBB, Korea) were accommodated for 1 week. And then, the weights of the animals were equally divided into 5 animals as one group. While a high fat diet (60% fat kcal) was provided, sterilized distilled water and HPBCDs with 10, 20, and 40% (W/V) were orally administered at three times (Morning, Afternoon, Evening) a day for 5 days in 0.2 ml per 20 g body weight of a mouse at the same time. A change in body weight was measured to all of the animals during the test at one time per day; the fixed amount of feeds was provided at the day of measuring body weight, and then an average amount of intake per an animal (g/mouse/day) was calculated by measuring a residual amount of feeds at the next day.
A body weight was measured by using the same conditions as the above <Example 3>, except that BCDs with 10 and 20% (W/V) concentrations were used instead of HPBCDs with 10, 20, and 40% (W/V) concentrations.
A change in body weight was measured during the test using α-CD instead of HPBCD in the same method as the above <Example 3>.

mouse = settings: cited from earlier work
high fat diet-mouse [2] = assay: Change in body weight by oral administration in high fat diet-mouse; type: in vivo; settings: Table 19, β-CD 15% (w/v) oral
[3] = system: mouse model with obesity caused by a high fat diet; assay: Change in body weight by autonomically drinking in mouse model with obesity caused by high fat diet; type: in vivo; settings: for degree of body weight decrease as compared with HPBCD: autonomically drinking
Procedure: Male C57BL/6J mice (Five age of the week, KRIBB, Korea) were accommodated for 1 week, and then were induced with obesity by giving a high fat diet (60% fat kcal, Research Diets) for 15 days. The weights of the animals that were induced with obesity were equally divided into 3 animals as one group. And then, the solvent-control group drank sterilized distilled water, autonomically. Hydroxypropyl-β-cyclodextrin (HPBCD) was dissolved in sterilized distilled water to be 10, 15, and 20% (W/V) concentrations for drinking autonomically. A change in body weight was daily measured to all of animals during the test; the fixed amount of feeds was provided at the day of measuring body weight, and then an amount of intake per a group (g/day) was calculated by measuring a residual amount of feeds at the next day. A change in body weight was measured during the test using α-cyclodextrin (α-CD) instead of 2-hydroxypropyl-β-cyclodextrin (HPBCD) in the same method as the above <Example 1>.

human = settings: cited from earlier work
[4] = system: mouse model with obesity caused by a high fat diet; assay: Change in body weight by autonomically drinking in mouse model with obesity caused by high fat diet; type: in vivo

OC[C@H]1O[C@@H]2O[C@H]3[C@H](O)[C@@H](O)[C@@H](O[C@H]4[C@H](O)[C@@H](O)[C@@H](O[C@H]5[C@H](O)[C@@H](O)[C@@H](O[C@H]6[C@H](O)[C@@H](O)[C@@H](O[C@H]7[C@H](O)[C@@H](O)[C@@H](O[C@H]8[C@H](O)[C@@H](O)[C@@H](O[C@H]1[C@H](O)[C@H]2O)O[C@@H]8CO)O[C@@H]7CO)O[C@@H]6CO)O[C@@H]5CO)O[C@@H]4CO)O[C@@H]3CO [BCD, β-cyclodextrin]
increase in body weight as compared with the distilled water oral-administering group (high fat diet-mouse [1]; 10 and 20% (W/V) oral): suppressed | body weight as compared with the initial body weight (high fat diet-mouse [1]; 10 and 20% (W/V) oral, Example 5): not decreased | Body weight as percent of initial body weight (high fat diet-mouse [1]; Table 15, BCD 10% (w/v) oral, 0 Day): 100.0 ± 0.0% | Body weight as percent of initial body weight (high fat diet-mouse [1]; Table 15, BCD 10% (w/v) oral, 1 Day): 101.5 ± 2.1% | Body weight as percent of initial body weight (high fat diet-mouse [1]; Table 15, BCD 10% (w/v) oral, 2 Day): 100.7 ± 1.9 % | Body weight as percent of initial body weight (high fat diet-mouse [1]; Table 15, BCD 10% (w/v) oral, 3 Day): 102.0 ± 2.5 % | Body weight as percent of initial body weight (high fat diet-mouse [1]; Table 15, BCD 10% (w/v) oral, 4 Day): 102.4 ± 4.0 % | Body weight as percent of initial body weight (high fat diet-mouse [1]; Table 15, BCD 10% (w/v) oral, 5 Day): 103.4 ± 4.1 % | Body weight as percent of initial body weight (high fat diet-mouse [1]; Table 15, BCD 20% (w/v) oral, 0 Day): 100.0 ± 0.0% | Change in body weight (%) (high fat diet-mouse [1]; Table 15, BCD 20% (w/v) oral, 1 Day): 100.3 ± 2.7 % | Body weight as percent of initial body weight (high fat diet-mouse [1]; Table 15, BCD 20% (w/v) oral, 2 Day): 102.1 ± 2.1 % | Body weight as percent of initial body weight (high fat diet-mouse [1]; Table 15, BCD 20% (w/v) oral, 3 Day): 103.1 ± 2.1 % | Body weight as percent of initial body weight (high fat diet-mouse [1]; Table 15, BCD 20% (w/v) oral, 4 Day): 103.7 ± 3.0 % | Body weight as percent of initial body weight (high fat diet-mouse [1]; Table 15, BCD 20% (w/v) oral, 5 Day): 103.2 ± 2.6 % | Body weight as percent of initial body weight (high fat diet-mouse [1]; Table 19, β-CD 10% (w/v) oral, 0 Day): 100.0 ± 0.0% | Body weight as percent of initial body weight (high fat diet-mouse [1]; Table 19, β-CD 10% (w/v) oral, 1 Day): 100.5 ± 0.8% | Body weight as percent of initial body weight (high fat diet-mouse [1]; Table 19, β-CD 10% (w/v) oral, 2 Day): 100.1 ± 1.3% | Body weight as percent of initial body weight (high fat diet-mouse [1]; Table 19, β-CD 10% (w/v) oral, 3 Day): 99.8 ± 1.2% | Body weight as percent of initial body weight (high fat diet-mouse [1]; Table 19, β-CD 15% (w/v) oral, 2 Day): 99.0 ± 1.4% | Body weight as percent of initial body weight (high fat diet-mouse [1]; Table 19, β-CD 15% (w/v) oral, 3 Day): 98.5 ± 1.0% | Body weight as percent of initial body weight (high fat diet-mouse [1]; Table 19, β-CD 20% (w/v) oral, 0 Day): 100.0 ± 0.0% | Body weight as percent of initial body weight (high fat diet-mouse [1]; Table 19, β-CD 20% (w/v) oral, 1 Day): 99.5 ± 1.1% | Body weight as percent of initial body weight (high fat diet-mouse [1]; Table 19, β-CD 20% (w/v) oral, 2 Day): 98.6 ± 0.8% | Body weight as percent of initial body weight (high fat diet-mouse [1]; Table 19, β-CD 20% (w/v) oral, 3 Day): 97.8 ± 1.3% | degree of body weight decrease as compared with HPBCD (high fat diet-mouse [1]): low | difference of effect between 10 and 20% (W/V) (high fat diet-mouse [1]; oral): no significant difference | antiobesity effect (mouse): suppress a weight increase | Body weight as percent of initial body weight (high fat diet-mouse [2]; 0 Day): 100.0 ± 0.0% | Body weight as percent of initial body weight (high fat diet-mouse [2]; 1 Day): 99.6 ± 1.2% | degree of body weight decrease as compared with HPBCD [3]: low | antiobesity effect (human): reduce weight | Change in body weight (%) ([4]; Table 18, β-CD 10% (w/v) autonomically drinking, 0 Day): 100.0 ± 0.0% | Change in body weight (%) ([4]; Table 18, β-CD 10% (w/v) autonomically drinking, 1 Day): 99.8 ± 0.8% | Change in body weight (%) ([4]; Table 18, β-CD 10% (w/v) autonomically drinking, 2 Day): 98.5 ± 1.3% | Change in body weight (%) ([4]; Table 18, β-CD 10% (w/v) autonomically drinking, 3 Day): 98.2 ± 1.2% | Change in body weight (%) ([4]; Table 18, β-CD 20% (w/v) autonomically drinking, 0 Day): 100.0 ± 0.0% | Change in body weight (%) ([4]; Table 18, β-CD 20% (w/v) autonomically drinking, 1 Day): 99.1 ± 1.2% | Change in body weight (%) ([4]; Table 18, β-CD 20% (w/v) autonomically drinking, 2 Day): 98.6 ± 1.2% | Change in body weight (%) ([4]; Table 18, β-CD 20% (w/v) autonomically drinking, 3 Day): 97.5 ± 1.0% | Change in body weight (%) ([4]; Table 18, β-CD 40% (w/v) autonomically drinking, 0 Day): 100.0 ± 0.0% | Change in body weight (%) ([4]; Table 18, β-CD 40% (w/v) autonomically drinking, 1 Day): 98.8 ± 1.1% | Change in body weight (%) ([4]; Table 18, β-CD 40% (w/v) autonomically drinking, 2 Day): 97.0 ± 0.8% | Change in body weight (%) ([4]; Table 18, β-CD 40% (w/v) autonomically drinking, 3 Day): 96.4 ± 1.3%

OC[C@H]1O[C@@H]2O[C@H]3[C@H](O)[C@@H](O)[C@@H](O[C@H]4[C@H](O)[C@@H](O)[C@@H](O[C@H]5[C@H](O)[C@@H](O)[C@@H](O[C@H]6[C@H](O)[C@@H](O)[C@@H](O[C@H]7[C@H](O)[C@@H](O)[C@@H](O[C@H]1[C@H](O)[C@H]2O)O[C@@H]7CO)O[C@@H]6CO)O[C@@H]5CO)O[C@@H]4CO)O[C@@H]3CO [α-CD, α-cyclodextrin]
Body weight as percent of initial body weight (high fat diet-mouse [1]; Table 17, α-CD 10% (w/v) oral, 0 Day): 100.0 ± 0.0% | Body weight as percent of initial body weight (high fat diet-mouse [1]; Table 17, α-CD 10% (w/v) oral, 1 Day): 101.3 ± 0.4% | Body weight as percent of initial body weight (high fat diet-mouse [1]; Table 17, α-CD 10% (w/v) oral, 2 Day): 100.5 ± 1.6% | Body weight as percent of initial body weight (high fat diet-mouse [1]; Table 17, α-CD 10% (w/v) oral, 3 Day): 100.2 ± 2.7% | Body weight as percent of initial body weight (high fat diet-mouse [1]; Table 17, α-CD 20% (w/v) oral, 0 Day): 100.0 ± 0.0% | Body weight as percent of initial body weight (high fat diet-mouse [1]; Table 17, α-CD 20% (w/v) oral, 1 Day): 99.8 ± 0.8% | Body weight as percent of initial body weight (high fat diet-mouse [1]; Table 17, α-CD 20% (w/v) oral, 2 Day): 99.5 ± 1.2% | Body weight as percent of initial body weight (high fat diet-mouse [1]; Table 17, α-CD 20% (w/v) oral, 3 Day): 99.2 ± 1.0% | Body weight as percent of initial body weight (high fat diet-mouse [1]; Table 17, α-CD 40% (w/v) oral, 0 Day): 100.0 ± 0.0% | Body weight as percent of initial body weight (high fat diet-mouse [1]; Table 17, α-CD 40% (w/v) oral, 1 Day): 99.6 ± 1.0% | Body weight as percent of initial body weight (high fat diet-mouse [1]; Table 17, α-CD 40% (w/v) oral, 2 Day): 99.0 ± 1.2% | Body weight as percent of initial body weight (high fat diet-mouse [1]; Table 17, α-CD 40% (w/v) oral, 3 Day): 98.2 ± 1.3% | degree of body weight decrease as compared with HPBCD (high fat diet-mouse [1]): low | Change in body weight (%) ([3]; Table 16, α-CD 10% (w/v) autonomically drinking, 2 Day): 100.6 ± 0.4% | Change in body weight (%) ([3]; Table 16, α-CD 15% (w/v) autonomically drinking, 1 Day): 99.8 ± 0.4% | Change in body weight (%) ([3]; Table 16, α-CD 15% (w/v) autonomically drinking, 2 Day): 99.3 ± 0.8% | Change in body weight (%) ([3]; Table 16, α-CD 20% (w/v) autonomically drinking, 1 Day): 99.8 ± 0.8% | Change in body weight (%) ([3]; Table 16, α-CD 20% (w/v) autonomically drinking, 2 Day): 99.0 ± 1.4% | degree of body weight decrease as compared with HPBCD [3]: low | Change in body weight (%) ([4]; Table 16, α-CD 10% (w/v) autonomically drinking, 0 Day): 100.0 ± 0.0% | Change in body weight (%) ([4]; Table 16, α-CD 10% (w/v) autonomically drinking, 1 Day): 100.2 ± 0.2% | Change in body weight (%) ([4]; Table 16, α-CD 10% (w/v) autonomically drinking, 3 Day): 100.1 ± 1.4% | Change in body weight (%) ([4]; Table 16, α-CD 15% (w/v) autonomically drinking, 0 Day): 100.0 ± 0.0% | Change in body weight (%) ([4]; Table 16, α-CD 15% (w/v) autonomically drinking, 3 Day): 98.9 ± 1.1% | Change in body weight (%) ([4]; Table 16, α-CD 20% (w/v) autonomically drinking, 0 Day): 100.0 ± 0.0% | Change in body weight (%) ([4]; Table 16, α-CD 20% (w/v) autonomically drinking, 3 Day): 98.5 ± 1.3%
